{
  "source": "patent US10292912B2",
  "about": "“Personal care compositions” (Colgate-Palmolive Company, priority 2015, dated 2019)",
  "assay": "Preparation and aging of 3% SnCl2.2H2O solutions with TSPP or TKPP",
  "format": "physicochemical",
  "settings": "room temperature",
  "description": "Solutions are prepared by dissolving TSPP in deionized water (mixing under heat if necessary) and then adding 0.6 g of SnCl2.2H2O to make 20-gram solutions.\nA 3% SnCl2.2H2O solution is used as a control.\nSolutions are prepared by dissolving TKPP in deionized water (mixing under heat if necessary) and then adding 0.6 g SnCl2.2H2O to make 20-g solutions.",
  "data": [
    {"compound": "O.O.[Cl][Sn][Cl]", "note": "[3% SnCl2.2H2O solution, SnCl2.2H2O]", "values": [
      {"measurement": "appearance after aging overnight", "result": "form a cloudy precipitate that settles"}
    ]}
  ]
}
